Test results as given in US20190175528A1, “INHIBITION OF BIOFILM ORGANISMS” (NovaBiotics Limited, priority 2009, published 2019).

How the values were obtained:
[1] = test system: S. aureus DSM 11729 (MRSA); assay: microbe, parasite or virus in culture; assay type: cell-based, Staphylococcus aureus; details: Staphylococcus aureus; agent alone; prevention of biofilm formation, 24 h
Procedure: (§1) The bacterial inoculum was established by the dilution method from actively-growing cultures in Mueller-Hinton broth, standardized with 0.5 McFarland turbidity standard as described in the CLSI method M26-A.
(§2) To determine the prevention of biofilm formation, both the bacterial inoculum and the antimicrobial agents were added simultaneously to the plates. The plates were incubated at 37° C. for 24 h and the optical density was read at 625 nm on a microtitre plate reader (BioTek Powerwave XS, Winooski, USA). The MIC was obtained as the lowest concentration of antimicrobial showing total inhibition of bacterial growth. […]
(§3) FIC=MICA[combination]/MICA[alone]+MICB[combination]/MICB[alone] […]
(§4) In order to assess for the prevention of biofilm formation by both Gram-positive and Gram-negative bacteria, the bacterial inoculum and antimicrobial agents were added simultaneously in the plates. The range of concentrations of antimicrobial agents was 0-500 μg/ml NP108 and 0-320 μg/ml cysteamine against the Gram-negative bacteria P. aeruginosa ATCC BAA-47 and 0-1000 μg/ml NP108 and 0-320 μg/ml cysteamine against the Gram-positive MRSA.

[2] = test system: P. aeruginosa ATCC BAA-47; assay: microbe, parasite or virus in culture; assay type: cell-based, Pseudomonas aeruginosa; details: Pseudomonas aeruginosa, ATCCBAA47; agent alone; prevention of biofilm formation, 24 h
Procedure: as §1, §2, §3, §4

[3] = test system: P. aeruginosa strains (7); assay: microbe, parasite or virus in culture; assay type: cell-based, Pseudomonas aeruginosa; details: Pseudomonas aeruginosa; agent alone; range over strains
Procedure: as §1
(§5) To determine the prevention of biofilm formation, both the bacterial inoculum and the antimicrobial agents were added simultaneously to the plates. The plates were incubated at 37° C. for 24 h and the optical density was read at 625 nm on a microtitre plate reader (BioTek Powerwave XS, Winooski, USA). The MIC was obtained as the lowest concentration of antimicrobial showing total inhibition of bacterial growth.
(§6) The FIC corresponds to an interaction coefficient indicating whether the combination of antimicrobial agents is synergistic, additive, antagonist or neutral. The FIC is determined by comparing the activity of an agent in combination (MIC of agent A+agent B) with the activity of the agent alone (MIC of agent A or agent B) as follow (Singh et al., 2000):
(§7) FIC=MICA[combination]/MICA[alone]+MICB[combination]/MICB[alone]
(§8) Additive combinations of two antimicrobial agents are indicated by a FIC index of 1, whereas a FIC index <1 indicates synergistic combinations. Neutral combinations would give a FIC between 1 and 4, a FIC index higher than 4 indicates antagonist effects between the two antimicrobial agents.
(§9) Summary of the activity of the tested antimicrobial agents against the Gram-negative P. aeruginosa strains and the Gram-positive Staphylococcus spp. The number into brackets indicates the maximum number of strains tested. MIC: minimum inhibition concentration; MBEC: minimum biofilm eradication concentration; FIC: fractional inhibitory concentration.

Staphylococcus spp (4) = assay: microbe, parasite or virus in culture; assay type: cell-based; details: Staphylococcus; agent alone; range over strains
Procedure: as §1, §5, §6, §7, §8, §9

[4] = test system: P. aeruginosa strains (7) biofilm cells; assay type: cell-based, Pseudomonas aeruginosa; details: agent alone
Procedure: (§10) The FIC was also calculated to assess the interaction of two antimicrobial agents in combination against bacterial biofilms. The same formulae applied, using MBEC instead of MIC.
(§11) A total volume of 100 μl bacterial inoculum in Mueller-Hinton was added to each well of 96-well plates (challenge plates) and the plates were incubated at 37° C. for 24 h on a gyrorotary shaking platform (Grant-bio PS-3D, Shepreth, England) at 24 rpm to allow for biofilm formation.
(§12) The challenge plates were then rinsed once with sterile PBS (lx) and two-fold serial dilutions of antimicrobial agents in Mueller-Hinton were added to the challenge plates. The challenge plates were incubated at 37° C. for 24 h on a gyrorotary shaking platform (Grant-bio PS-3D, Shepreth, England) at 24 rpm.
(§13) The supernatants from each of the challenge plates were transferred into fresh plates and the optical density was measured at 625 nm on a microtitre plate reader (BioTek Powerwave XS, Winooski, USA). The MBEC was obtained by the lowest concentration of antimicrobial showing no bacterial growth.
as §9

[5] = test system: Staphylococcus spp (4) biofilm cells; assay type: cell-based; details: agent alone; biofilm cells
Procedure: as §10, §11, §12, §13, §9

[6] = test system: P. aeruginosa strains (7) persister cells; assay: Persister cells in biofilms (live/dead staining), summary over strains; assay type: cell-based, Pseudomonas aeruginosa; details: agent alone
Procedure: (§14) Following transfer of the supernatant from the challenge plates, the biofilms were rinsed once with sterile PBS (lx) and 100 μl of BacLight live/dead fluorescent staining solution (Invitrogen, Paisley, UK) containing 4 μM SYTO9 and 20 μM propidium iodide (PI) in sterile PBS (lx) were added to the wells of the challenge plates. The plates were incubated at room temperature in the dark for 15 min and the fluorescence was read at 485(ex)/528(em) and 485(ex)/645(em) for SYTO9 and PI fluorescence, respectively on a fluorescence microtitre plate reader (BioTek Synergy HT, Winooski, USA) with the sensitivity set at 50 and bottom optics position was selected. Direct observation of the biofilms with an Axiovert 40 fluorescence microscope (Zeiss, Gottingen, Germany) allowed identifying the presence of live and dead bacteria and pictures of the biofilms were taken at 100 to 400-fold magnification.
(§15) The relative viability of persister cells was determined by the live/dead fluorescence measurements ratio and microscopic observations were used to confirm the presence or absence of live cells.
as §9

[7] = test system: Staphylococcus spp (4) persister cells; assay: as above; assay type: cell-based; details: agent alone; persister cells
Procedure: as §14, §15, §9

[8] = test system: P. aeruginosa ATCC BAA-47 (PAO1) biofilm cells; assay: MBEC against 24 h-old biofilm; assay type: cell-based, Pseudomonas aeruginosa
Procedure: as §10, §11, §12, §13
(§16) The assessment of the activity of NP108 and cysteamine against bacterial biofilms was carried out with 24 h-old biofilms and the activity of both compounds in combination was also determined. The activity of the antimicrobial agents against bacterial biofilms was determined by their activity against the biofilm cells and against the persister cells.

[9] = test system: S. aureus DSM 11729 biofilm cells; assay type: cell-based, Staphylococcus aureus
Procedure: as §10, §11, §12, §13, §16

[10] = test system: P. aeruginosa ATCC27853 biofilm cells; assay type: cell-based, Pseudomonas aeruginosa; details: agent alone; FIG. 21a
Procedure: as §11, §12, §13

[11] = test system: P. aeruginosa ATCC BAA-47 (PAO1) persister cells; assay: Relative viability of persister cells (SYTO9/PI live/dead fluorescence, microscopy); assay type: cell-based, Pseudomonas aeruginosa; details: agent alone; relative viability remained significant; FIG. 12
Procedure: as §14, §15
The activity of NP108 and cysteamine against the persister cells was assessed using a fluorescence staining method to determine the relative viability of the cells. The nucleic acid-binding fluorescent molecules used were SYTO9 and PI, which penetrate all bacterial cells (green fluorescence) and membrane-disrupted cells (red fluorescence), respectively.

[12] = test system: S. aureus DSM 11729 persister cells; assay: as above; assay type: cell-based, Staphylococcus aureus; details: agent alone, at low concentrations; FIG. 18
Procedure: as §14, §15
The activity of NP108 and cysteamine against the persister cells was assessed using a fluorescence staining method to determine the relative viability of the cells. […]

[13] = test system: Gram-positive and Gram-negative persister cells; assay: Relative viability of persister cells (SYTO9/PI live/dead fluorescence); assay type: cell-based; details: lowest concentration tested; FIG. 10
Procedure: as §14, §15

[14] = test system: S. aureus DSM 11729 (MRSA); details: agent alone; data not shown
[15] = test system: P. aeruginosa ATCC BAA-47; details: agent alone; data not shown

With `NCCS` [Cysteamine, cysteamine, reference compound] the MIC [1] was > 320 µg/mL, the MIC [2] was 320 µg/mL and the MIC [3] was 300 to 2500 µg/mL. The MIC (Staphylococcus spp (4)) was 300 to 625 µg/mL, the “MBEC, P. aeruginosa strains (7)” value [4] was >5,000 μg/ml and the “MBEC, Staphylococcus spp (4)” value [5] was >25,000 μg/ml. The “Persisters, active concentration, P. aeruginosa strains (7)” value [6] was 500-6,250 μg/ml, the “Persisters, active concentration, Staphylococcus spp (4)” value [7] was 6,250-12,500 μg/ml and the “MBEC [alone], P. aeruginosa ATCC BAA-47 biofilm cells” value ([8]; agent alone) was > 100.00 µg/mL. For the same compound, the “MBEC cysteamine[combination], P. aeruginosa ATCC BAA-47 biofilm cells” value ([8]; with 250 μg/ml NP108) was 62.5 µg/mL, the “MBEC, S. aureus (MRSA) DSM 11729 biofilm cells” value ([9]; agent alone) was 250 µg/mL and the “MBEC cysteamine[combination], S. aureus DSM 11729 biofilm cells” value ([9]; with 31.25 μg/ml NP108) was 62.5 µg/mL. The “MBEC alone, P. aeruginosa ATCC27853” value [10] was “more than 100 mg/ml”, the “activity against persister cells of P. aeruginosa ATCC BAA-47” value [11] was “lack of activity” and the “activity against persister cells of S. aureus DSM 11729” value [12] was “lack of activity”. For the same compound, the “concentration that suppressed the viability of Gram-positive and Gram-negative persister cells” value [13] was ≤ 6.25 mg/mL, the “bactericidal concentration, S. aureus DSM 11729” value [14] was “more than 320 μg/ml” and the “bactericidal concentration, P. aeruginosa ATCC BAA-47” value [15] was > 320 µg/mL.
